In article PMC11703153 (bioRxiv, 2025):

Target: T1, ChREBP (ChREBPα) (Mus musculus, UniProt Q99MZ3)
T1 sequence (Q99MZ3 43-307): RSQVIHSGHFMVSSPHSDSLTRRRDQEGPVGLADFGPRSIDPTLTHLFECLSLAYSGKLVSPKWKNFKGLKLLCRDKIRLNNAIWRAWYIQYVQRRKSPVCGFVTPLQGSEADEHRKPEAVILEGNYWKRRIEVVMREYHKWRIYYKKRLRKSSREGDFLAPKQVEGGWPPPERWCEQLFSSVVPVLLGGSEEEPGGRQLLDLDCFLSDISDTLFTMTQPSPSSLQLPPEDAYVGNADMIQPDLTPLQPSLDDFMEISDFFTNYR
Assay: isothermal titration calorimetry, purified refolded GSM domain, […] °C
Format: binding
Settings: not given

Q: With `O=C(CO)COP(=O)(O)O` [DHAP, dihydroxyacetone phosphate] as the compound, how does the Kd read?
A: 453 µM

Same assay, conditions: read-out: Kd ± SD

Q: How did the Kd turn out when `O=P(O)(O)OCC(O)CO` (stereo not shown) [G3P, glycerol-3-phosphate] was run?
A: 17 µM

Q: With `O=P(O)(O)OC[C@H]1OC(O)[C@H](O)[C@@H](O)[C@@H]1O` (stereo partly shown) [G6P, glucose-6-phosphate] as the compound, how does the Kd read?
A: 64.3 µM

Q: How did the Kd turn out when `O=P(O)(O)OC[C@H]1OC(O)(COP(=O)(O)O)[C@@H](O)[C@@H]1O` (stereo partly shown) [F1,6BP, fructose-1,6-bisphosphate] was run?
A: 250 µM

Q: How did the Kd turn out when `OC[C@H]1OC(O)[C@H](O)[C@@H](O)[C@@H]1O` (stereo partly shown) [Glc, glucose] was run?
A: 270 µM

Q: How did the Kd turn out when `O=CC(O)COP(=O)(O)O` (stereo not shown) [GA3P, glyceraldehyde-3-phosphate] was run?
A: 221 µM

Q: Which Kd does the source give for `O=C(CO)[C@@H](O)[C@H](O)[C@H](O)COP(=O)(O)O` [F6P] here?
A: 131 µM
